Molecular target: T1, GPR120 (Homo sapiens, UniProt Q5NUL3)
T1 construct: expressed in transfected cells; host or cells: CHO mitoPhotinaGPR120 cells
T1 sequence (Q5NUL3 1-361): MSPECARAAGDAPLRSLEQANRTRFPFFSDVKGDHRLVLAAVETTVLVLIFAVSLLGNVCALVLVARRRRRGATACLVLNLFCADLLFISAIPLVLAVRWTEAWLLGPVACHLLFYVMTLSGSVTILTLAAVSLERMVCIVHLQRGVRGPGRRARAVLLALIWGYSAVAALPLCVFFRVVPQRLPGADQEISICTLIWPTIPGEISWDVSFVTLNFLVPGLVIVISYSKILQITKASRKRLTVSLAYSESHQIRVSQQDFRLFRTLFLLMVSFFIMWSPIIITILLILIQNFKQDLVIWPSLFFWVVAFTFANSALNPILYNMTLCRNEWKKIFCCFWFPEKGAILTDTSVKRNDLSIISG
Test: GPR120 agonism in CHO mitoPhotinaGPR120 cell based assay with fluorescent (Fluo-8 calcium, FLIPRTetra) readout, Agonist Mode, dose response
Settings: CHO mitoPhotinaGPR120 cells, Fluo-8 No Wash Ca2+ dye, dose response in quadruplicate, 0.0033% fatty acid free BSA

EC50 | SMILES
0.22 µM | Cc1nn(-c2ccc(Cl)cn2)c(COc2c(F)cc(CCCO)cc2F)c1C#N [Example 166, 1-(5-chloro-2-pyridyl)-5-[[2,6-difluoro-4-(3-hydroxypropyl)phenoxy]methyl]-3-methyl-pyrazole-4-carbonitrile]
0.21 µM | COc1ccc(-n2nc(C)c(C#N)c2COc2c(F)cc(CCCO)cc2F)nc1 [Example 167, 5-[[2,6-difluoro-4-(3-hydroxypropyl)phenoxy]methyl]-1-(5-methoxy-2-pyridyl)-3-methyl-pyrazole-4-carbonitrile]
4.48 µM | COc1ccc(S(=O)(=O)Nc2c(C)cc(C)cc2C)cc1 [GSK137639A, reference compound]

From patent US11597702B2, “Substituted pyrazoles FFA4/GPR120 receptor agonists” (AXXAM S.P.A., priority 2018, dated 2023)
